Laboratory results: patent US20230061319A1, “METHODS OF TREATING TUMORS” (CoImmune, Inc., priority 2020, published 2023)

How the values were obtained:
human tumor cell lines [1] = settings: xenografts of human tumor cell lines; cited from earlier work
human tumor cell lines [2] = settings: broad range of human tumor cell lines; cited from earlier work
CMV pp65 specific CTLs [3] = test: CMV pp65 specific recall CTL effector function (IFN-γ, TNF-α, IL-2 secretion, CD107a expression); type: cell-based, human
Experimental: (§1) PME-CD40L DCs derived from HLA-A2-positive donors and transfected with antigen-encoding mRNAs were co-cultured with purified CD8^+ T cells. All co-cultures were performed in R-10 media. CD8^+ T cells were purified using the CD8+ T Cell Negative Selection Kit II (Miltenyi Biotec) from non-adherent cells harvested from the monocyte adherence step. The CD8^+ cells were mixed with DCs at a 10:1 ratio and incubated in the presence of 0.2 µg/mL IL-2 and 10 ng/mL IL-7 (R&D Systems). DC/T cell co-cultures were re-stimulated on day 7 and supplemented with 20 units/mL IL-2 plus 10 ng/mL IL-7. Induction of primary immune responses to MART-1 and memory/recall responses to CMV pp65 were measured on day 10.
(§2) To identify antigen-specific T cell responses and the phenotype of the antigen specific cells, T cells were harvested on day 10 post-stimulation and incubated with peptide-pulsed T2 target cells at a ratio of 10:1 for 4 hour with Brefeldin A, Monensin (BD Biosciences) and CD107a PE-Cy5. […] After 4 hours of co-culture, responder T cells were stained for 10 minutes with the requisite peptide/pentamer reagent, then washed once and re-stained with CD8-Eflour605, CD45RA-FITC, and CD28-APC. Cells were then washed in PBS and stained with Aquadye (BD Biosciences) for analysis of viability. Labeled cells were then fixed and permeabilized in Fixation/Permeabilization solution (eBiosciences). Cells where then stained with IFN-γ-PECy7, TNFa-AF700 and IL-2-PerCPcy5.5 in permeabilization buffer and resuspended in FACs buffer prior to acquisition.
To assess the impact mTOR inhibition would have on CTL effector function in vitro, CMV pp65 specific CTLs were assayed for the ability to secret the cytokines IFN-y, TNF-α and IL-2, and express the degranulation marker CD107a, which serves as a surrogate marker to measure lytic activity. Data presented in FIG. 2A and FIG. 2B measures the absolute numbers of CMV […] specific CTLs that secrete IFN-y, TNF-α or IL-2, or express CD107a in response to CMV pp65 peptide pulsed target cells. The absolute numbers of CMV^+ CTLs shown have been corrected for background non-specific responses to display only the antigen specific response for each parameter.

MART-1 specific CTLs [4] = test: Priming of MART-1 specific CTLs by PME-CD40L DCs in the presence of mTOR inhibitors; type: cell-based, human; settings: in the presence of the mTOR inhibitor, 10 ng/ml to 1 ug/ml
Experimental: 300 x 10^6 peripheral blood mononuclear cells (PBMCs) were cultured in 30 mL AIM-V media (Thermo Fisher Scientific) in T150 flasks (Corning) for 2 hours to provide for the adherence of monocytes. Non-adherent cells were removed by washing the monolayers twice with cold phosphate buffered saline (PBS) (Cambrex), and the remaining monocytes were cultured in X-VIVO 15 medium (Cambrex) for 5 days, supplemented with 1000 U/mL each of granulocyte macrophage-colony stimulating factor (GM-CSF) (Bayer AG, Leukine® liquid) and IL-4 (R&D Systems). To achieve DC maturation, immature DCs were first cultured on day 5 with 10 ng/mL tumor necrosis factor alpha (TNF-α) (R&D Systems), 1000 µ/mL interferon gamma (IFN-y) (Actimmune), and 1 µg/mL prostaglandin E2 (PGE2) (Sigma). On day 6, phenotypically mature DCs were co-electroporated with RNA encoding CD40L (Argos Lot No. 101606 JSC) at a concentration of 3 ug per million DCs plus either human cytomegalovirus (CMV) pp65 or MART-1 encoding RNAs at 2 µg per million DCs (CMVpp65 RNA-Argos Lot No 071107XF, MART-1-APL RNA-Argos Lot No. 011909HC). […]
PME-CD40L DCs derived from HLA-A2-positive donors and transfected with antigen-encoding mRNAs were co-cultured with purified CD8^+ T cells. […] Induction of primary immune responses to MART-1 and memory/recall responses to CMV pp65 were measured on day 10. […]

MART-1 specific CTLs [5] = test: MART-1 specific CTL effector function (IFN-γ, TNF-α, IL-2 secretion, CD107a expression); type: cell-based, human; settings: at the higher concentrations tested; compared to untreated CTLs
Experimental: as §1
as §2, with “Cells where then stained with IFN-γ-PECy7, TNFa-AF700 and IL-2-PerCPcy5.5 in permeabilization buffer and resuspended in FACs buffer prior to acquisition.” left out

CMV pp65 specific CTLs [6] = test: Induction of CMV pp65 specific recall CTLs by PME-CD40L DCs in the presence of mTOR inhibitors; type: cell-based, human
Experimental: 300 x 10^6 peripheral blood mononuclear cells (PBMCs) were cultured in 30 mL AIM-V media (Thermo Fisher Scientific) in T150 flasks (Corning) for 2 hours to provide for the adherence of monocytes. Non-adherent cells were removed by washing the monolayers twice with cold phosphate buffered saline (PBS) (Cambrex), and the remaining monocytes were cultured in X-VIVO 15 medium (Cambrex) for 5 days, supplemented with 1000 U/mL each of granulocyte macrophage-colony stimulating factor (GM-CSF) (Bayer AG, Leukine® liquid) and IL-4 (R&D Systems). To achieve DC maturation, immature DCs were first cultured on day 5 with 10 ng/mL tumor necrosis factor alpha (TNF-α) (R&D Systems), 1000 µ/mL interferon gamma (IFN-y) (Actimmune), and 1 µg/mL prostaglandin E2 (PGE2) (Sigma). On day 6, phenotypically mature DCs were co-electroporated with RNA encoding CD40L (Argos Lot No. 101606 JSC) at a concentration of 3 ug per million DCs plus either human cytomegalovirus (CMV) pp65 or MART-1 encoding RNAs at 2 µg per million DCs (CMVpp65 RNA-Argos Lot No 071107XF, MART-1-APL RNA-Argos Lot No. 011909HC). Generation of MART-1 RNA and CD40L RNA is described in e.g., DeBenedette et al., J. Immunol. 181(8):5296-5305 (2008).
Electroporated DCs were cultured for an additional 4 hours in X-VIVO 15 media supplemented with 800 µ/mL GM-CSF and 500 µ/mL IL-4 at 1 x 10^6 DCs/mL in low adherence 6-well plates (Costar). After 4 hr, the DCs were harvested by washing with cold PBS and prepared as a frozen formulation at 10 x 10^6 DCs/mL in 20% DMSO and 80% FBS, representing antigen electroporated Post Maturation Electroporated (PME)-CD40L DC preparations.
as §1, §2
CD8^+ cytotoxic T lymphocyte (CTL) responses were used to measure the pp65 CMV recall response induced by PME-CD40L DCs in the presence of mTOR inhibitors everolimus and temsirolimus. PME-CD40L DCs encoding CMV pp65 were used to stimulate recall CTL responses in the presence of the mTOR inhibitors under evaluation for compatibility with the CMN-001 product. The expansion of recall CTLs specific for CMV pp65 was determined on day 3 after a second weekly stimulation with PME-CD40L DCs.

[7] = 10 ng/ml, compared to DC/CTL co-cultures without mTOR inhibitor, day 3 after second weekly stimulation

Structure (SMILES) | antiproliferative activity in murine tumor xenograft models (human tumor cell lines [1]) | antiproliferative activity in vitro (human tumor cell lines [2]) | numbers of CMV+ CTL secreting a cytokine or expressing CD107a (CMV pp65 specific CTLs [3]; 10 ng/ml, compared to untreated CTLs) | increase in effector function of CMV+ CTL (CMV pp65 specific CTLs [3]; 1 µg/ml) | priming of MART-1 specific CTLs by PME-CD40L DC (MART-1 specific CTLs [4]) | numbers of MART-1+ CTL secreting a cytokine or expressing CD107a (MART-1 specific CTLs [5]) | numbers of CMV pp65 specific CTLs (CMV pp65 specific CTLs [6]; [7]) | percentage of CMV pp65 specific CTLs (CMV pp65 specific CTLs [6]; [7]) | increase in absolute numbers of CMV+ CTL (CMV pp65 specific CTLs [6]; 1 µg/ml) | increase in percentage of CMV+ CTL (CMV pp65 specific CTLs [6]; 1 µg/ml)
CO[C@H]1C[C@@H]2CC[C@@H](C)[C@@](O)(O2)C(=O)C(=O)N2CCCC[C@H]2C(=O)O[C@H]([C@H](C)C[C@@H]2CC[C@@H](OP(C)(C)=O)[C@H](OC)C2)CC(=O)[C@H](C)/C=C(\C)[C@@H](O)[C@@H](OC)C(=O)[C@H](C)C[C@H](C)/C=C/C=C/C=C/1C [Ridaforolimus, ridaforolimus] | antiproliferative activity | antiproliferative activity | – | – | – | – | – | – | – | –
CO[C@H]1C[C@@H]2CC[C@@H](C)[C@@](O)(O2)C(=O)C(=O)N2CCCC[C@H]2C(=O)O[C@H]([C@H](C)C[C@@H]2CC[C@@H](OC(=O)C(C)(CO)CO)[C@H](OC)C2)CC(=O)[C@H](C)/C=C(\C)[C@@H](O)[C@@H](OC)C(=O)[C@H](C)C[C@H](C)/C=C/C=C/C=C/1C [temsirolimus] | – | – | increased | maintained | able to prime | increased | increase | increase | evident | evident
